# Columns and labels:
# Format in all cases: biochemical
# cathepsin S = target: T1, cathepsin S (Homo sapiens, UniProt P25774); assay: Cathepsin S enzyme inhibition in vitro (kinetic fluorescence assay); settings: Ki(cathepsin S)/Ki(calpain) ratio
# T1 construct: purchased Calbiochem 219343; host or cells: E. coli
# Method: (§1) Testing for blockade of the corresponding enzymic activities was carried out by means of kinetic fluorescence assays (excitation 390 nm, emission 460 nm).
# (§2) Apparent Ki values were calculated from the experimentally determined IC50 values by the Cheng-Prussoff relation assuming a reversible competitive enzyme inhibition. The Km values of the substrates used under the assay conditions indicated above were: 90 μM (Z-Phe-Arg-AMC, cathepsin B), 10 μM (Z-Gly-Pro-Arg-AMC, cathepsin K), 2 μM (Z-Phe-Arg-AMC, cathepsin L), and 30 μM (Z-Val-Val-Arg-AMC, cathepsin S).
# (§3) The indicated Ki values are averages of the inhibition constants calculated on the basis of 2 to 4 independent dose-effect plots.
# (§4) • 1. Calpain I: • 20 nM calpain-I—isolated from human erythrocytes (Calbiochem #208713), 100 μM Suc-Leu-Tyr-AMC (Bachem #1-1355) as substrate in buffer with 62 mM imidazole, 0.3 mM CaCl2, 0.10% CHAPS, 0.05% BSA, 1 mM DTT at pH 7.3 and room temperature. • 2. Cathepsin B: • 0.25 nM cathepsin B—isolated from human liver (Calbiochem #219362), 100 μM Z-Phe-Arg-AMC (Bachem #1-1160) as substrate 50 mM MES, 2 mM EDTA, 0.05% Brij 35, 2.5 mM L-cysteine, pH 6.0, room temperature. • 3. Cathepsin K: • 3 nM cathepsin K—activated from recombinant human procathepsin K from E. coli (Calbiochem #342001), 10 μM Z-Gly-Pro-Arg-AMC (Biomol #P-142) as substrate in 50 mM MES, 2 mM EDTA, 0.05% Brij 35, 2.5 mM L-cysteine, pH 6.0, room temperature. • 4. Cathepsin L: • 1 nM cathepsin L—isolated from human liver (Calbiochem #219402), 2 μM Z-Phe-Arg-AMC (Bachem #1-1160) as substrate in 50 mM MES, 2 mM EDTA, 0.05% Brij 35, 2.5 mM L-cysteine, pH 6.0, room temperature. • 5. Cathepsin S: • 0.5 nM recombinant human cathepsin S from E. coli (Calbiochem #219343), 20 μM Z-Val-Val-Arg-AMC (Bachem #1-1540) as substrate in 50 mM MES, 2 mM EDTA, 0.05% Brij 35, 2.5 mM L-cysteine, pH 6.0, room temperature.
# cathepsin B = target: T2, cathepsin B (Homo sapiens, UniProt P07858); assay: Cathepsin B enzyme inhibition in vitro (kinetic fluorescence assay); settings: Ki(cathepsin B)/Ki(calpain) ratio
# T2 construct: cathepsin B—isolated from human liver; purchased Calbiochem 219362; host or cells: human liver (tissue isolate)
# Method: as §1, §2, §3, §4
# cathepsin L = target: T3, cathepsin L (Homo sapiens, UniProt P07711); assay: Cathepsin L enzyme inhibition in vitro (kinetic fluorescence assay); settings: Ki(cathepsin L)/Ki(calpain) ratio
# T3 construct: cathepsin L—isolated from human liver; purchased Calbiochem 219402; host or cells: human liver (tissue isolate)
# Method: as §1, §2, §3, §4
# T1 sequence (P25774 115-331): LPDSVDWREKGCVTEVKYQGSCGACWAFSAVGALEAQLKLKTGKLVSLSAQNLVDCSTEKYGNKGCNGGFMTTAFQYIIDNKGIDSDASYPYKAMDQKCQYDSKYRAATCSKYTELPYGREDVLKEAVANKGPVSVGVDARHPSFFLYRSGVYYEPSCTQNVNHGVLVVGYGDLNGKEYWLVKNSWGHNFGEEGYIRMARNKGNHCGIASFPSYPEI
# T3 sequence (P07711 114-333): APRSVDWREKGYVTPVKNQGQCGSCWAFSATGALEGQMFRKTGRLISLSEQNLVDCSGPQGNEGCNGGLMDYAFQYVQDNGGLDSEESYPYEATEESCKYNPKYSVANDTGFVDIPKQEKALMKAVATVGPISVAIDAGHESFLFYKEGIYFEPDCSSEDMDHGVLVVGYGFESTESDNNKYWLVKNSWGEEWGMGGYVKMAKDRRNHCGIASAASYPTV
Structure (SMILES),Sel cat. S (cathepsin S),Sel cat. B (cathepsin B),Sel cat. L (cathepsin L)
"NC(=O)C(=O)C(Cc1ccccc1)NC(=O)c1cccnc1-n1ccc(-c2ccc(N3CCCCC3)cc2)n1 (centres unmarked) [Example 64, N-(3-Amino-1-benzyl-2,3-dioxopropyl)-2-[3-(4-piperidin-1-ylphenyl)-1H-pyrazol-1-yl]nicotinamide]",++ (++ means a Ki(cathepsin S)/Ki(calpain) ratio of ≧100),+ (+ means 10≦Ki(cathepsin B)/Ki(calpain)<30),
"NC(=O)C(=O)C(Cc1ccccc1)NC(=O)c1cccnc1-n1cc2c(n1)-c1ccccc1OCC2 (centres unmarked) [Example 141, N-[3-Amino-2,3-dioxo-1-(phenylmethyl)propyl]-2-(4,5-dihydro-2H-Mbenzoxepino[5,4-c]pyrazol-2-yl)pyridine-3-carboxamide]",++ (++ means a Ki(cathepsin S)/Ki(calpain) ratio of ≧100),,++ (++ means a Ki(cathepsin L)/Ki(calpain) ratio of ≧50)
"NC(=O)C(=O)C(Cc1ccccc1)NC(=O)c1cccnc1-n1ccc(-c2ccc(Cl)cc2)n1 (centres unmarked) [Example 39, N-(3-Amino-1-benzyl-2,3-dioxopropyl)-2-[3-(4-chlorophenyl)-1H-pyrazol-1-yl]nicotinamide]",++ (++ means a Ki(cathepsin S)/Ki(calpain) ratio of ≧100),,++ (++ means a Ki(cathepsin L)/Ki(calpain) ratio of ≧50)
"NC(=O)C(=O)C(Cc1ccccc1)NC(=O)c1cccnc1-n1cc2ccccc2n1 (centres unmarked) [Example 78, N-(3-Amino-1-benzyl-2,3-dioxopropyl)-2-(2H-indazol-2-yl)nicotinamide]",+ (+ means 50≦Ki(cathepsin S)/Ki(calpain)<100),,++ (++ means a Ki(cathepsin L)/Ki(calpain) ratio of ≧50)
"NC(=O)C(=O)C(Cc1ccccc1)NC(=O)c1cccnc1-n1cc(COc2ccccc2)c(-c2ccc(F)cc2)n1 (centres unmarked) [Example 179, N-[3-Amino-2,3-dioxo-1-(phenylmethyl)propyl]-2-{3-(4-fluorophenyl)-4-[(phenyloxy)methyl]-1H-pyrazol-1-yl}pyridine-3-carboxamide]",++ (++ means a Ki(cathepsin S)/Ki(calpain) ratio of ≧100),,+ (+ means 30≦Ki(cathepsin L)/Ki(calpain)<50)
"CCCCC(NC(=O)c1cccnc1-n1cnc(-c2ccc(N3CCOCC3)cc2)c1)C(=O)C(N)=O.Cl (centres unmarked) [Example 15, N-{1-[Amino(oxo)acetyl]pentyl}-2-[4-(4-morpholin-4-ylphenyl)-1H-imidazol-1-yl]nicotinamide hydrochloride]",+ (+ means 50≦Ki(cathepsin S)/Ki(calpain)<100),,++ (++ means a Ki(cathepsin L)/Ki(calpain) ratio of ≧50)
"Cl.NC(=O)C(=O)C(Cc1ccccc1)NC(=O)c1cccnc1-n1cnc(-c2ccc(C(F)(F)F)cc2)c1 (centres unmarked) [Example 18, N-(3-Amino-1-benzyl-2,3-dioxopropyl)-2-{4-[4-(trifluoromethyl)phenyl]-1H-imidazol-1-yl}nicotinamide hydrochloride]",++ (++ means a Ki(cathepsin S)/Ki(calpain) ratio of ≧100),,+ (+ means 30≦Ki(cathepsin L)/Ki(calpain)<50)
"Cc1cn(-c2ncccc2C(=O)NC(Cc2ccccc2)C(=O)C(N)=O)nc1-c1ccccc1 (centres unmarked) [Example 84, N-(3-Amino-1-benzyl-2,3-dioxopropyl)-2-(4-methyl-3-phenyl-1H-pyrazol-1-yl)nicotinamide]",++ (++ means a Ki(cathepsin S)/Ki(calpain) ratio of ≧100),+ (+ means 10≦Ki(cathepsin B)/Ki(calpain)<30),++ (++ means a Ki(cathepsin L)/Ki(calpain) ratio of ≧50)
"NC(=O)C(=O)C(Cc1cccs1)NC(=O)c1cccnc1-n1ccc(-c2ccc(F)cc2)n1 (centres unmarked) [Example 57, N-[3-Amino-2,3-dioxo-1-(2-thienylmethyl)propyl]-2-[3-(4-fluorophenyl)-1H-pyrazol-1-yl]nicotinamide]",++ (++ means a Ki(cathepsin S)/Ki(calpain) ratio of ≧100),,++ (++ means a Ki(cathepsin L)/Ki(calpain) ratio of ≧50)
"N#Cc1ccc(-c2ccn(-c3ncccc3C(=O)NC(Cc3ccccc3)C(=O)C(N)=O)n2)cc1 (centres unmarked) [Example 62, N-(3-Amino-1-benzyl-2,3-dioxopropyl)-2-[3-(4-cyanophenyl)-1H-pyrazol-1-yl]nicotinamide]",++ (++ means a Ki(cathepsin S)/Ki(calpain) ratio of ≧100),,++ (++ means a Ki(cathepsin L)/Ki(calpain) ratio of ≧50)
"CCCCC(NC(=O)c1cccnc1-n1ccc(-c2ccc(OC)cc2)n1)C(=O)C(N)=O (centres unmarked) [Example 49, N-{1-[Amino(oxo)acetyl]pentyl}-2-[3-(4-methoxyphenyl)-1H-pyrazol-1-yl]nicotinamide]",++ (++ means a Ki(cathepsin S)/Ki(calpain) ratio of ≧100),,+ (+ means 30≦Ki(cathepsin L)/Ki(calpain)<50)
"CCCCC(NC(=O)c1cc(Cl)cnc1-n1ccc(-c2ccccc2)n1)C(=O)C(N)=O (centres unmarked) [Example 28, N-{1-[Amino(oxo)acetyl]pentyl}-5-chloro-2-(3-phenyl-1H-pyrazol-1-yl)nicotinamide]",,+ (+ means 10≦Ki(cathepsin B)/Ki(calpain)<30),
"CCCCC(NC(=O)c1cccnc1-n1ccc(-c2cccc(N3CCOCC3)c2)n1)C(=O)C(N)=O (centres unmarked) [Example 59, N-{1-[Amino(oxo)acetyl]pentyl}-2-[3-(3-morpholin-4-ylphenyl)-1H-pyrazol-1-yl]nicotinamide]",+ (+ means 50≦Ki(cathepsin S)/Ki(calpain)<100),,++ (++ means a Ki(cathepsin L)/Ki(calpain) ratio of ≧50)
"COc1ccc(-c2cn(-c3ncccc3C(=O)NC(Cc3ccccc3)C(=O)C(N)=O)cn2)cc1 (centres unmarked) [Example 13, N-(3-Amino-1-benzyl-2,3-dioxopropyl)-2-[4-(4-methoxyphenyl)-1H-imidazol-1-yl]nicotinamide]",+ (+ means 50≦Ki(cathepsin S)/Ki(calpain)<100),,++ (++ means a Ki(cathepsin L)/Ki(calpain) ratio of ≧50)
"Cc1cc(-c2ccccc2)nn1-c1ncccc1C(=O)NC(Cc1ccccc1)C(=O)C(N)=O (centres unmarked) [Example 61, N-(3-Amino-1-benzyl-2,3-dioxopropyl)-2-(5-methyl-3-phenyl-1H-pyrazol-1-yl)nicotinamide]",++ (++ means a Ki(cathepsin S)/Ki(calpain) ratio of ≧100),+ (+ means 10≦Ki(cathepsin B)/Ki(calpain)<30),
"CCCCC(NC(=O)c1cccnc1-n1ccc(-c2ccc(N3CCOCC3)cc2)n1)C(=O)C(N)=O (centres unmarked) [Example 33, N-{1-[Amino(oxo)acetyl]pentyl}-2-[3-(4-morpholin-4-ylphenyl)-1H-pyrazol-1-yl]nicotinamide]",+ (+ means 50≦Ki(cathepsin S)/Ki(calpain)<100),+ (+ means 10≦Ki(cathepsin B)/Ki(calpain)<30),
"CC(C)CC(NC(=O)c1cc(Cl)cnc1-n1ccc(-c2ccccc2)n1)C(=O)C(N)=O (centres unmarked) [Example 32, N-{1-[Amino(oxo)acetyl]-3-methylbutyl}-5-chloro-2-(3-phenyl-1H-pyrazol-1-yl)nicotinamide]",,+ (+ means 10≦Ki(cathepsin B)/Ki(calpain)<30),
"NC(=O)C(=O)C(Cc1ccccc1)NC(=O)c1ccccc1-n1ccc(-c2ccccc2)n1 (centres unmarked) [Example 106, N-[3-Amino-2,3-dioxo-1-(phenylmethyl)propyl]-2-(3-phenyl-1H-pyrazol-1-yl)benzamide]",++ (++ means a Ki(cathepsin S)/Ki(calpain) ratio of ≧100),,+ (+ means 30≦Ki(cathepsin L)/Ki(calpain)<50)
